Assays:
[1] = test system: RON-mutated (Δ160) HT-29 colon cancer cell line; assay: Cell killing efficacy, trypan blue exclusion assay, HT-29; type: cell-based; conditions: HT29 cell, 48 hours
Summary of the method: (§1)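 KM12C (MEM+10% FBS) and HT-29 (RPMI+10% FBS) cells, seeded 24 h earlier, exposed to compound at 1 μM or 5 μM for 48 h after medium change. Live and dead cells counted by trypan blue exclusion (n=2); cell death rate reported relative to a reference comparative compound.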

KM12C cells = assay: Cytotoxicity MTS assay, KM12C; type: cell-based; conditions: Homo sapiens, 72 hours
Procedure: (§2) In order to confirm the specific cytotoxicity of the drugs, the cultured cells were treated with 0.05% trypsin/EDTA (0.5% trypsin EDTA (10×), Product No.: 15400-054, GIBCO) to detach them from the culture dish, and 3,000 cells (KM12C) or 2,000 cells (HT29, Colo 320 HSR) were dispensed into each well.
(§3) After 24 hours, sample compounds were dissolved in DMSO (Product No.: D8418-250ML, SIGMA) to make 10 mM stock solutions. As the sample compounds, the compounds synthesized in the examples of the present invention and the compounds of the comparative examples were used.
(§4) The cells were treated with the sample compound dilutions, and cultured in a 5% CO2 incubator at 37° C. for 72 hours.
(§5) Thereafter, 20 μL of MTS solution (CellTiter™ 96 Aqueous One Solution Cell Proliferation Assay, Product No.: G3581, Promega) was dispensed into each well and mixed well, and the cells were incubated for 1 to 4 hours at 37° C. in a 5% CO2 incubator.

HT29 cells = assay: Cytotoxicity MTS assay, HT29; type: cell-based; conditions: Homo sapiens, HT-29, 72 hours
Procedure: as §2, §3, §4, §5

RON kinase = biological target: T1, RON kinase (Homo sapiens, UniProt Q04912); assay: RON kinase enzyme inhibitory activity, FRET (TR-FRET) technique; type: biochemical; conditions: 60 min reaction
T1 construct: purchased Carna Bioscience
Summary of the method: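 RON kinase (2× stock 0.4 nM) was preincubated 15 min with compound in HEPES pH 7.5/MgCl2 buffer, then reacted 60 min at room temperature with ATP (4× stock 60 μM) and tyrosine peptide substrate (4× stock 400 nM). The reaction was stopped with EDTA plus Eu-anti-phosphotyrosine antibody and read by TR-FRET (ex 340, em 620/665 nm). IC50 came from 665 nm emission versus concentration.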

[2] = test system: RON-activated KM12C colon cancer cell line; assay: Cell killing efficacy, trypan blue exclusion assay, KM12C; type: cell-based; conditions: 48 hours
Summary of the method: as §1

T1 sequence (Q04912 25-1400): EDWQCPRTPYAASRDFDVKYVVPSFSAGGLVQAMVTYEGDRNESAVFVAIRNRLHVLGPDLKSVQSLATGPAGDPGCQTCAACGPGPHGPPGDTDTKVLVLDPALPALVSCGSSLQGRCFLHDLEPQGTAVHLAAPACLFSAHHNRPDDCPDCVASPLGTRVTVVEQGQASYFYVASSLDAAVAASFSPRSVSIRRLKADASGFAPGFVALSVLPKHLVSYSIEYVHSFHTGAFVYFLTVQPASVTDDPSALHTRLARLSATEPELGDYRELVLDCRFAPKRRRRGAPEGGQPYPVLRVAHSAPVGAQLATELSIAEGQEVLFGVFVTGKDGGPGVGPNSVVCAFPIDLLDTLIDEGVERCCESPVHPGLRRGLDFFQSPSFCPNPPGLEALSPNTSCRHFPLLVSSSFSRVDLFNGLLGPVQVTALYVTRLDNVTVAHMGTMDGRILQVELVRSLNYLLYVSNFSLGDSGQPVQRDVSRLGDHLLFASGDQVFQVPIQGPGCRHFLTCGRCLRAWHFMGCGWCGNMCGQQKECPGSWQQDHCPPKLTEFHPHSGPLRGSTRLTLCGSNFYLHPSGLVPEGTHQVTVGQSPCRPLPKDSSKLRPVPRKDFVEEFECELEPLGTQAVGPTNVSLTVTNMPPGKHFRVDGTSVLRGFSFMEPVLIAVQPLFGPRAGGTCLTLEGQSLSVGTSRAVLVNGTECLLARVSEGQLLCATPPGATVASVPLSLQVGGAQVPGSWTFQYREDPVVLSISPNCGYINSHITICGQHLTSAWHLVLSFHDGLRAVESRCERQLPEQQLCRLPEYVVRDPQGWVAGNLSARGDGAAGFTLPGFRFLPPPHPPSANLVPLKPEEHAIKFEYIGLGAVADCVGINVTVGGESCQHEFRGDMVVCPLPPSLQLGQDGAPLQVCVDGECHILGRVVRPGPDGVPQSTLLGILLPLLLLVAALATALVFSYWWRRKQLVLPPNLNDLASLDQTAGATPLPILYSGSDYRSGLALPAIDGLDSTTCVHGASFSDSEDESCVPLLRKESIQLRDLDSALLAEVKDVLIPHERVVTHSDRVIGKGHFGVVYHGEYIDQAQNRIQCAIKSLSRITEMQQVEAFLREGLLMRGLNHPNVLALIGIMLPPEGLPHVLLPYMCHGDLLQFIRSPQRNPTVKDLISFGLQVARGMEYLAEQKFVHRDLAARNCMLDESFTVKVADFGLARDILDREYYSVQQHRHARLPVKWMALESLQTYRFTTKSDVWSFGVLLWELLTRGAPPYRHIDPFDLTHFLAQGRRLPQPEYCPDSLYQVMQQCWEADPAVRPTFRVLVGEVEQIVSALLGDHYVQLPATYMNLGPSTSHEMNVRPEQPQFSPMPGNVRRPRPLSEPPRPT

COCCNCc1ccc(-c2cc3nccc(Oc4ccc(NC(=O)c5c(C)ccn(-c6ccccc6)c5=O)cc4F)c3s2)nc1.Cl [Example 28, N-(3-fluoro-4-{[-2-(5-{[(2-methoxyethyl)amino]methyl}pyridin-2-yl)thieno[3,2-b]pyridin-7-yl]oxy}phenyl)-4-methyl-2-oxo-1-phenyl-1,2-dihydropyridine-3-carboxamide Hydrochloride]
Cell death rate (Relative to Comp. Ex. 1) ([1]; 1 μM): x 1.46
Cell death rate (Relative to Comp. Ex. 1) ([1]; 5 μM): x 2.65
IC50 (KM12C cells): 59 nM
IC50 (HT29 cells): 908 nM
IC50 (RON kinase): 0.56 nM
Cell death rate (Relative to Comp. Ex. 1) ([2]; 1 μM): x 1.22
Cell death rate (Relative to Comp. Ex. 1) ([2]; 5 μM): x 1.58

COCCNCc1ccc(-c2cc3nccc(Oc4ccc(NC(=O)c5ccnn(-c6ccc(F)cc6)c5=O)cc4F)c3s2)nc1.Cl [Example 20, N-(3-fluoro-4-[{2-(5-[{(2-methoxyethyl)amino}methyl]pyridin-2-yl)thieno[3,2-b]pyridin-7-yl}oxy]phenyl)-2-(4-fluorophenyl)-3-oxo-2,3-dihydropyridazine-4-carboxamide Hydrochloride]
Cell death rate (Relative to Comp. Ex. 1) ([1]; 1 μM): x 0.75
Cell death rate (Relative to Comp. Ex. 1) ([1]; 5 μM): x 1.13
IC50 (KM12C cells): 10 nM
IC50 (HT29 cells): > 10000 nM
IC50 (RON kinase): 2.47 nM
Cell death rate (Relative to Comp. Ex. 1) ([2]; 1 μM): x 1.07
Cell death rate (Relative to Comp. Ex. 1) ([2]; 5 μM): x 1.11
